Measurements reported in publication PMC6753226, “Highly Efficient Preparation of Cyclic Dinucleotides via Engineering of Dinucleotide Cyclases in Escherichia coli” (Frontiers in Microbiology, 2019).

Molecular target: T1, STING (Homo sapiens, UniProt Q86WV6, H232R)
T1 construct: gene STING1; carboxy-terminal domain (STING^R232/CTD; CTD printed as residues 149–379)
Assay: isothermal titration calorimetry (ITC)
Type: binding

T1 sequence (Q86WV6 149-379 H232R): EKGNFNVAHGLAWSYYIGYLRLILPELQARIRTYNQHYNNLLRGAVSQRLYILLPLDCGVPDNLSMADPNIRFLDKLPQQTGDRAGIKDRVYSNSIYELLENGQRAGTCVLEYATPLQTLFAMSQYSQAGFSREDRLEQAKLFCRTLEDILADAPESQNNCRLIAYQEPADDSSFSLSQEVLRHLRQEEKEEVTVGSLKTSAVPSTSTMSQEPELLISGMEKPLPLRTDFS

Q: How did the Kd turn out when Nc1nc2c(ncn2[C@@H]2O[C@@H]3CO[P@](=O)(O)O[C@H]4[C@@H](O)[C@H](n5cnc6c(=O)[nH]c(N)nc65)O[C@@H]4CO[P@](=O)(O)O[C@H]3[C@H]2O)c(=O)[nH]1 [c-di-GMP] was run?
A: 4.09 µM
